These results are taken from US9290440B2, “Bicyclic compound” (TOA EIYO LTD., priority 2012, dated 2016).

For orientation: Emax means the size of the effect at its maximum, as opposed to the concentration needed.

Like-named read-outs stand apart in the source and are kept apart here.

Experiment [1] concerns the target T1, human sGC α subunit and β subunit (Homo sapiens, UniProt Q02153).
T1 construct: expressed in transfected cells
T1 sequence (Q02153 1-619): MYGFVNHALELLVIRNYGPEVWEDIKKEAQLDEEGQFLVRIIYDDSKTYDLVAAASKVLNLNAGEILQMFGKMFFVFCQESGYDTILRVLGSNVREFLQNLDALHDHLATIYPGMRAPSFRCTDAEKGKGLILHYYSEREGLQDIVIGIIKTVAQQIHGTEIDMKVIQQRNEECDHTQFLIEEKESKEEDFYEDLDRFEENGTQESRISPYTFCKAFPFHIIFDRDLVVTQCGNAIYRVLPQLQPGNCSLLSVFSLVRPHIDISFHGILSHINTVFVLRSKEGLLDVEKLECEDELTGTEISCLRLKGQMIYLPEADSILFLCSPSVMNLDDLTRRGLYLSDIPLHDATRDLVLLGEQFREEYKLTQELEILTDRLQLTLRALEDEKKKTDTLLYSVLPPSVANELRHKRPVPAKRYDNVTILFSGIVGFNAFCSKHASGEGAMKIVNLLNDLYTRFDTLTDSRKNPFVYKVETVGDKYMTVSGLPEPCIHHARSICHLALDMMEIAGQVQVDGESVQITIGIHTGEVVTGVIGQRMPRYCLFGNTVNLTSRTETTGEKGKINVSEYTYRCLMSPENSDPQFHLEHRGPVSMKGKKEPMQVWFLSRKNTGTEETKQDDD
T1 sequence (Q02108 1-690 partner): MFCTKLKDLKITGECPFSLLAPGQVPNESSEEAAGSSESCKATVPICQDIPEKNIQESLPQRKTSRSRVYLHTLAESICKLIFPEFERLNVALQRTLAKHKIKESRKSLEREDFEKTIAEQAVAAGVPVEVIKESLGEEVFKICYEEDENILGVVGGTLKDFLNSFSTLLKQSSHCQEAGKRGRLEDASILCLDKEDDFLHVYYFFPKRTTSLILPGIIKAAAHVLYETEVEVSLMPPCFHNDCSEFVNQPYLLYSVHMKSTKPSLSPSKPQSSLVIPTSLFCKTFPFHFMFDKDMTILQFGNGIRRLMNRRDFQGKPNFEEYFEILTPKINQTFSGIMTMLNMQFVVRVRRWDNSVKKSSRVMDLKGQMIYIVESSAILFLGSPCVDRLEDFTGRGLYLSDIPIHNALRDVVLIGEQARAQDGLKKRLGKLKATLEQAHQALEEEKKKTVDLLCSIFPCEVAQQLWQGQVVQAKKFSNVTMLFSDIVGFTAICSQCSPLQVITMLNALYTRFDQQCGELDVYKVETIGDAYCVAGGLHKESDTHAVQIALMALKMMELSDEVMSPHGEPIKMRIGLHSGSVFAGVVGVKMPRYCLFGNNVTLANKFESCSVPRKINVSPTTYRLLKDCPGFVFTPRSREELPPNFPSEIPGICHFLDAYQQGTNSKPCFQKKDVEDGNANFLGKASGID
The experiment is described as follows: Maximum effect of sGC activating function (Ca2+ fluorescence in CHO-K1 cells expressing human sGC and mouse CNGA2). The class given is cell-based. The following applies: increase ratio of sGC activity vs control solution at 10 μmol/L test compound. How it is done: (§1) For the assay, Chinese hamster ovary cells (CHO-K1 cells) in which human sGC α subunit and β subunit and mouse cyclic nucleotide gated channel (CNGA2) are stably expressed were used.
(§2) CHO-K1 cells in which human sGC and mouse CNGA2 are stably expressed were cultured at 37° C. in F-12 medium containing 10% (v/v) fetal bovine serum (FBS), penicillin (100 U/mL), streptomycin (100 μg/mL), G418 (250 μg/mL), and zeocin (250 μg/mL). The cells were suspended in the culture medium and seeded onto a 96-well plate, and then cultured at 37° C. for 24 hours. After washing with assay buffer 1 (140 mmol/L sodium chloride, 5 mmol/L potassium chloride, 0.5 mmol/L magnesium chloride, 0.01 mmol/L calcium chloride, 10 mmol/L glucose, 0.4 mmol/L magnesium sulfate, 10 mmol/L 4-(2-hydroxyethyl)piperazin-1-ylethane sulfonic acid, and 125 μmol/L sulfinpyrazone, pH 7.4), an indicator solution in which FURA2-AM as a fluorescent Ca^2+ indicator is dissolved at concentration of 5 μmol/L in assay buffer 1 was added followed by culture for 60 minutes at 37° C. The indicator solution was removed. After washing with assay buffer 1, the test compound solution was added and incubated for 10 minutes at room temperature. The plate was placed in a fluorometer (Flex Station II, Molecular Devices, LLC), and then the intracellular calcium concentration was measured as fluorescence intensity ratio which is obtained from each excitation wavelength (excitation wavelength of 340 nm and 380 nm and detection wavelength of 510 nm).
(§3) The test compound solution was prepared by dissolving each of the test compounds in DMSO to a concentration of 10 mmol/L, and then adding the assay buffer 2 (140 mmol/L sodium chloride, 5 mmol/L potassium chloride, 0.5 mmol/L magnesium chloride, 1 mmol/L calcium chloride, 10 mmol/L glucose, 0.4 mmol/L magnesium sulfate, 10 mmol/L 4-(2-hydroxyethyl)piperazin-1-ylethane sulfonic acid, 125 μmol/L sulfinpyrazone, 100 μmol/L isobutylmethylxanthine, 10 μmol/L 1H-[1,2,4]-oxadiazole[4,3-a]quinoxalin-1-one (hereinbelow, ODQ), pH 7.4) for dilution to have test concentration of 10 μmol/L. For the evaluation of a case in which ODQ is not contained, the same evaluation was performed except that ODQ is excluded from assay buffer 2. As a control solution, a DMSO solution was used instead of the test compound solution.
(§4) The activity of the test compound corresponds to the increase ratio (%) of the sGC activity at the time of adding the test compound solution with respect to the sGC activity at the time of adding the control solution, and it was calculated by dividing the fluorescence intensity ratio at the time of adding the test compound by the fluorescence intensity ratio of the control solution and subtracting the sGC activity (100%) at the time of adding the control solution.
In this assay, intracellular cGMP concentration increases as sGC is activated, and according to opening of CNGA2 following the increase of cGMP, intracellular Ca^2+ concentration increases. Thus, SGC activation can be measured by following the change in intracellular Ca^2+ concentration. […] Thus, in the absence of ODQ, the maximum sGC activating function including the heme-dependent activation can be evaluated while the heme-independent sGC activating function can be evaluated in the presence of ODQ.

Experiment [2] deals with T1, human sGC α subunit and β subunit. In words: Heme-independent property of sGC activating function (EC50 ratio, CHO-K1 cells expressing human sGC and mouse CNGA2). The experiment is classed as cell-based. The following applies: EC50 in the absence of ODQ divided by EC50 in the presence of ODQ, sGC activation. How it is done: as §1, §2, §3, §4
For the representative compounds, activity was measured in the same manner as Test Example 1 at each test concentration of 0.0001, 0.001, 0.003, 0.01, 0.03, 0.1, 1, and 10 μmol/L.
The degree of heme-independent property of each test compound with regard to sGC activating function was obtained by dividing, for EC50 measured from the concentration-activation curve which has been established from the above, EC50 in the absence of ODQ by EC50 in the presence of ODQ. Specifically, the smaller the EC50 ratio is, the less the change in sGC activating function is, the change in the function being caused by the presence or absence of ODQ, and thus it is found to be more heme-independent.
EC50 value was obtained by measuring the activity of each compound to be tested at concentrations of 0.0001, 0.001, 0.003, 0.01, 0.03, 0.1, 1, and 10 μmol/L and performing the calculation using four-parameter logistics model using Assay Explorer (Accelrys).

Setting [3] is: ODQ not contained, read-out: Emax (%) ODQ− (Heme-dependent).
Where [4] appears, read: with 10 μmol/L ODQ, read-out: Emax (%) ODQ+ (Heme-independent).

For `O=C(O)CCCCN(CCc1ccccc1OC[C@H]1CC[C@H](CCc2ccccc2)CC1)C1CCCc2cc(C(=O)O)ccc21` (stereo partly drawn) [Example 26, 5-{N-(4-Carboxybutyl)-N-[2-[2-[trans-4-(2-phenylethyl)cyclohexylmethoxy]phenyl]ethyl]amino}-5,6,7,8-tetrahydronaphthalene-2-carboxylic acid], the figures for the Emax at 10 µM in experiment [1] (setting [3]) and in experiment [1] (setting [4]) were 119% and 86.9%, respectively.

For `O=C(O)CCCCN(CCc1ccccc1OCc1ccc(CSc2ccccc2)cc1)C1CCCc2cc(C(=O)O)ccc21` (stereo not drawn) [Example 17, 5-{N-(4-Carboxybutyl)-N-[2-[2-(4-phenylsulfanylmethylbenzyloxy)phenyl]ethyl]amino}-5,6,7,8-tetrahydronaphthalene-2-carboxylic acid], the Emax at 10 µM in experiment [1] (setting [3]) was determined as 115%; in experiment [1] (setting [4]) it was 91.8%.

Consider `O=C(O)CCCCN(CCc1ccccc1OCc1ccc(CCc2ccccc2)cc1)C1CCCc2cc(C(=O)O)ccc21` (stereo not drawn) [Example 2, 5-{N-(4-Carboxybutyl)-N-[2-[2-[4-(2-phenylethyl)benzyloxy]phenyl]ethyl]amino}-5,6,7,8-tetrahydronaphthalene-2-carboxylic acid], for which the Emax at 10 µM is 97.5% in experiment [1] (setting [3]) and 109% in experiment [1] (setting [4]). In experiment [2], the “EC50 Ratio (ODQ−/ODQ+)” value is on record as 2.67.

For the compound `O=C(O)CCCCN(CCc1ccccc1OCc1ccc(OCc2ccccc2)cc1)C1CCCc2cc(C(=O)O)ccc21` (stereo not drawn) [Example 14, 5-{N-[2-[2-(4-Benzyloxybenzyloxyl)phenyl]ethyl]-N-(4-carboxybutyl)amino}-5,6,7,8-tetrahydronaphthalene-2-carboxylic acid], the Emax at 10 µM in experiment [1] (setting [3]) stood at 99.1%; in experiment [1] (setting [4]) it was 101%. Moreover, the “EC50 Ratio (ODQ−/ODQ+)” value in experiment [2] was 1.73.

Consider `O=C(O)CCCCN(CCc1ccccc1OCc1ccc(CCc2ccccc2)cc1)C1CCOc2cc(C(=O)O)ccc21` (stereo not drawn) [Example 4, 4-{N-(4-Carboxybutyl)-N-[2-[2-[4-(2-phenylethyl)benzyloxy]phenyl]ethyl]amino}chromane-7-carboxylic acid], for which the Emax at 10 µM in experiment [1] (setting [3]) is 114%; in experiment [1] (setting [4]), 109%. Further, the “EC50 Ratio (ODQ−/ODQ+)” value in experiment [2] is recorded as 2.85.

Take `O=C(O)CCCCN(CCc1ccccc1OCc1ccc(CCC2CCCCC2)cc1)C1CCCc2cc(C(=O)O)ccc21` (stereo not drawn) [Example 24, 5-{N-(4-Carboxybutyl)-N-[2-[2-[4-(2-cyclohexylethyl)benzyloxy]phenyl]ethyl]amino}-5,6,7,8-tetrahydronaphthalene-2-carboxylic acid]: the Emax at 10 µM in experiment [1] (setting [3]) was 135%; in experiment [1] (setting [4]), 114%.

In the case of `O=C(O)CCCCN(CCc1ccccc1OCc1ccccc1Cl)C1CCCc2cc(C(=O)O)ccc21` (stereo not drawn) [Example 13, 5-{N-(4-Carboxybutyl)-N-[2-[2-(2-chlorobenzyloxyl)phenyl]ethyl]amino}-5,6,7,8-tetrahydronaphthalene-2-carboxylic acid], the Emax at 10 µM in experiment [1] (setting [3]) is 64.2%; in experiment [1] (setting [4]) it was 87.2%.

Take `O=C(O)CCCCN(CCc1ccccc1OCc1ccc(COc2ccccc2)cc1)C1CCCc2cc(C(=O)O)ccc21` (stereo not drawn) [Example 16, 5-{N-(4-Carboxybutyl)-N-[2-[2-(4-phenoxymethylbenzyloxy)phenyl]ethyl]amino}-5,6,7,8-tetrahydronaphthalene-2-carboxylic acid]: the Emax at 10 µM was 116% in experiment [1] (setting [3]) and 97.5% in experiment [1] (setting [4]).

Consider `O=C(O)CCCCN(CCc1ccccc1OCc1ccc(CCc2ccccc2)cc1)C1CCSc2cc(C(=O)O)ccc21` (stereo not drawn) [Example 5, 4-{N-(4-Carboxybutyl)-N-[2-[2-[4-(2-phenylethyl)benzyloxy]phenyl]ethyl]amino}thiochromane-7-carboxylic acid], for which the Emax at 10 µM worked out at 84.5% in experiment [1] (setting [3]) and 86.9% in experiment [1] (setting [4]).

As to `C#Cc1ccc(COc2ccccc2CCN(CCCCC(=O)O)C2CCCc3cc(C(=O)O)ccc32)cc1` (stereo not drawn) [Example 19, 5-{N-(4-Carboxybutyl)-N-[2-[2-(4-ethynylbenzyloxy)phenyl]ethyl]amino}-5,6,7,8-tetrahydronaphthalene-2-carboxylic acid], the Emax at 10 µM in experiment [1] (setting [3]) is 88.7%; in experiment [1] (setting [4]), 88%.

As to `O=C(O)CCCCN(CCc1ccccc1OCc1ccc(C#CC2CCCCC2)cc1)C1CCCc2cc(C(=O)O)ccc21` (stereo not drawn) [Example 22, 5-{N-(4-Carboxybutyl)-N-[2-[2-(4-cyclohexylethynylbenzyloxy)phenyl]ethyl]amino}-5,6,7,8-tetrahydronaphthalene-2-carboxylic acid], the results for the Emax at 10 µM in experiment [1] (setting [3]) and in experiment [1] (setting [4]) were 108% and 100%, respectively.

Consider `CC(C)(C)c1cccc(COc2ccccc2CCN(CCCCC(=O)O)C2CCCc3cc(C(=O)O)ccc32)c1` (stereo not drawn) [Example 41, 5-{N-[2-[2-(3-tert-Butylbenzyloxy)phenyl]ethyl]-N-(4-carboxybutyl)amino}-5,6,7,8-tetrahydronaphthalene-2-carboxylic acid], for which the Emax at 10 µM was 109% in experiment [1] (setting [3]) and 140% in experiment [1] (setting [4]).
